Test results as given in paper PMC8557901 (Microbiology Spectrum, 2021).
Structures can show the parent of a compound that is named as a salt. Where two headings read alike, the source gives them in different places. Each block holds one molecule with its values, some of them ahead of it.

Tests used:
[1] = system: P. falciparum strain K1 in RBC; experiment: In vitro chemosensitivity assay, blood stage P. falciparum K1 (SYBR green I); type: cell-based; details: Plasmodium falciparum, read-out: EC50 (μM) for P. falciparum strain K1 in RBC
Procedure: Maintenance in continuous culture was done as described previously by Trager and Jensen ([46]). Cultures were maintained in fresh A+ human erythrocytes (EFS [French Blood Bank]) at 2.5% hematocrit in complete medium (RPMI 1640 with 25 mM HEPES, 25 mM NaHCO3, 10% A+ human serum) at 37°C under a reduced-O2 atmosphere (gas mixture of 10% O2, 5% CO2, and 85% N2). Parasitemia was maintained daily between 1% and 3%. The P. falciparum drug susceptibility test was carried out by comparing quantities of DNA in treated and control cultures of parasites in human erythrocytes according to a SYBR green I fluorescence-based method ([50]) using a 96-well fluorescence plate reader. Compounds, previously dissolved in DMSO (final concentration, less than 0.5% vol/vol), were incubated in a total assay volume of 200 μl of synchronized culture suspension (2% hematocrit and 0.4% parasitemia) for 72 h in a humidified atmosphere (85% N2, 10% O2, and 5% CO2) at 37°C in 96-well flat-bottom plates. Duplicate assays were performed for each sample. After incubation, plates were frozen at −20°C for 24 h. Then, the frozen plates were thawed for 1 h at 37°C. Fifteen microliters of each sample was transferred to 96-well flat-bottom black plates (Greiner Bio-one) already containing 15 μl of the SYBR green I lysis buffer (2× SYBR green I, 20 mM Tris base, pH 7.5, 20 mM EDTA, 0.008% [wt/vol] saponin, 0.08% [wt/vol] Triton X-100). […] Plates were incubated for 15 min at 37°C and then read on a Tecan Infinite F-200 spectrophotometer with excitation and emission wavelengths at 485 and 535 nm, respectively. […] EC50K1 values represent the mean values calculated from three independent experiments.

[2] = Cytotoxicity on HepG2 cell line (MTT); type: cell-based; details: human, HepG2 cells
Procedure: The evaluation of the cytotoxicity of the tested molecules on the HepG2 cell line was performed according to the method of Mosman ([42]) with slight modifications. […] Triplicate assays were performed for each sample. Each well was then examined under a microscope to detect possible precipitate formation before the medium was aspirated from the wells. An amount of 100 μl of MTT solution (0.5 mg/ml in medium without FBS) was then added to each well. […] After this time, the MTT solution was removed and DMSO (100 μl) was added to dissolve the resulting blue formazan crystals. Plates were shaken vigorously (700 rpm) for 10 min. The absorbance was measured at 570 nm with 630 nm as the reference wavelength using a Tecan Infinite F-200 microplate reader. DMSO was used as a blank and doxorubicin as a positive control. Cell viability was calculated as the percentage compared to the control (cells incubated without compound). […] CC50 values represent the mean values calculated from three independent experiments.

[3] = system: Plasmodium berghei; design: method as in PMID 25791675; details: 2.5 mg/kg twice a day for 3 days; untreated group 9%; cited from earlier work
[4] = system: P. falciparum F32-ART5 quiescent parasites; experiment: Quiescent-stage survival assay (QSA); type: cell-based, Plasmodium falciparum; details: artemisinin 3 μM 6 h then artemisinin + CQ 200 nM versus artemisinin alone
Procedure: The Plasmodium falciparum artemisinin-resistant strain F32-ART5 and its twin artemisinin-sensitive line F32-TEM ([30], [31]) were cultivated at 37°C with 5% CO2 in human red blood cells (EFS [French Blood Bank]) diluted to 2% hematocrit in RPMI 1640 medium supplemented with 5% human serum (EFS) as previously reported ([47]).
Chemosensitivity evaluation of artemisinin-resistant parasites at the quiescent stage was performed on the F32-ART5 strain using the quiescent-stage survival assay (QSA) ([33]). D-Sorbitol-synchronized ring-stage parasites at 3% parasitemia (2% hematocrit) were first exposed to 3 μM artemisinin for 6 h to induce quiescence of artemisinin-resistant parasites. Then, quiescent parasites were exposed or not (as a control condition) to 2.5 μM M1 for 24 h. After drug exposure, parasite cultures were washed with RPMI 1640 medium and replaced in normal drug-free culture conditions. The time to parasite recrudescence was determined as the time required to reach initial parasitemia. […] In each experiment, results obtained with the condition “artemisinin 3 μM 6 h/artemisinin 3 μM 24 h” were compared to those obtained with the condition “artemisinin 3 μM 6 h/(artemisinin 3 μM + M1 2.5 μM) 24 h” in order to determine the delay in recrudescence time. […] Each experiment was carried out three times independently, and data statistically analyzed. […]

[5] = system: P. yoelii in HepG2-CD81 cells; experiment: Hepatic stage of P. yoelii in HepG2-CD81 cells; type: cell-based; details: Plasmodium yoelii; hepatic schizonts
Procedure: Hepatocytes were seeded into collagen-coated black 96-well plates and maintained at 37°C in 5% CO2 in complete medium. […] The infected culture plates were centrifuged for 10 min at 900 × g, allowing fast parasite sedimentation, and further incubated with serial dilutions of M1. […] DMSO was used as a negative control. The number, size, and shape of the parasites were determined using a CellInsight high-content screening platform equipped with Studio HCS software (ThermoFisher Scientific). The parasite immunostaining was done using an […]70 antibody raised in mice and a secondary anti-mouse antibody coupled to Alexa Fluor 488 ([43]). […] Thirty-seven images, representing more than 95% of the total bottom surface area of a culture well in 96-well plates, were captured for analysis. The custom script used for counting and measuring parasites first required identification of the objects based on a fluorescence intensity threshold. The object identity was then further validated based on size and morphological (shape) criteria. The presence of DAPI-associated fluorescence in the selected objects allowed their final selection and the rejection of false positives. […] The parasitic size reduction was calculated on the average object area using the total surface area of each selected object (μm^2).

[6] = system: P. cynomolgi liver-stage parasites in simian primary hepatocytes; experiment: In vitro liver-stage development, P. cynomolgi in simian primary hepatocytes; type: cell-based, Plasmodium cynomolgi
Description: (§1) Primary human hepatocytes were isolated from liver segments obtained from adult patients undergoing partial hepatectomy (Service de Chirurgie Digestive, Hépato-Bilio Pancréatique, Hôpital Pitié Salpêtrière, Paris, France). Primary simian hepatocytes were isolated from liver segments collected from healthy Macaca fascicularis monkeys from CEA, Fontenay aux Roses, France. All hepatocytes were obtained using collagenase perfusion as previously described ([40]). […] Primary murine hepatocytes were isolated from liver segments collected from BALB/c mice. Human and murine hepatocytes were used directly after their isolation. Cells were seeded in 96-well plates (Falcon; Becton Dickinson Labware Europe, France) coated with collagen I (BD Bioscience, USA) at a density of 80,000 cells per well. […] For human hepatocytes, the complete medium was supplemented with 2% dimethyl sulfoxide (DMSO; Sigma-Aldrich, USA) before infection to preserve their differentiation.
(§2) On the day of infection, 3 · 10^4 sporozoites of P. falciparum, P. yoelii, and P. cynomolgi were added to their respective host cell cultures (human, murine, and simian). The infected culture plates were centrifuged for 10 min at 900 × g, allowing fast parasite sedimentation, and further incubated with serial dilutions of M1. Culture medium containing the appropriate drug concentration was refreshed daily, and cells were fixed at 48 h postinfection (p.i.) for infections with P. yoelii, 6 days p.i. for P. falciparum, or 8 days p.i. for P. cynomolgi. For the in vitro sporozoite invasion experiments, P. falciparum sporozoites were preincubated with 1, 10, and 100 μM M1 for 1 h at room temperature before hepatocyte infections. Three hours later, after sporozoite penetration into hepatocytes, cultures were washed and then further incubated with or without the presence of the drug during 6 days. DMSO was used as a negative control.
(§3) The number, size, and shape of the parasites were determined using a CellInsight high-content screening platform equipped with Studio HCS software (ThermoFisher Scientific). […] Host cell and parasite nuclei were labeled with DAPI (4′,6-diamidino-2-phenylindole). […] The custom script used for counting and measuring parasites first required identification of the objects based on a fluorescence intensity threshold. The object identity was then further validated based on size and morphological (shape) criteria. The presence of DAPI-associated fluorescence in the selected objects allowed their final selection and the rejection of false positives. […] The parasitic size reduction was calculated on the average object area using the total surface area of each selected object (μm^2).

[7] = system: P. yoelii liver-stage parasites in murine primary hepatocytes; experiment: In vitro liver-stage development, P. yoelii in murine primary hepatocytes; type: cell-based, Plasmodium yoelii
Description: P. yoelii 230-GFP-Luc sporozoites are mutant parasites expressing a green fluorescent protein (GFP)-luciferase cassette generated by the gene out marker out (GOMO) strategy ([39]).
as §1, §2, §3

[8] = system: P. yoelii (GFP-luc strain); experiment: In vivo liver-stage assay in mice infected with P. yoelii sporozoites; design: species or system BALB/c mice; details: 50 mg/kg; blood smears days 3 and 6
Procedure: Five mice per treatment group were used. Experimental groups were treated with 50 and 100 mg/kg of M1 intraperitoneally (i.p.). Untreated infected mice and noninfected mice (infection controls), as well as primaquine-treated (50 mg/kg) mice (control drug), were also included. The drugs were administered on days −1, 0, and +1, and mice were challenged on day zero by retroorbital injection of P. yoelii (GFP-luc strain) sporozoites (10,000 per mouse). In vivo bioluminescence imaging was performed 44 h postinfection on day 2, to assess liver-stage development. When parasites were detected in the liver, treatment was continued until day 5 and in vivo imaging was performed on days 3 and 6, to evaluate a prepatent period for the blood-stage parasites in mice after the sporozoite inoculation. In vivo imaging and blood smears were performed to monitor blood-stage development using methods described previously ([45]). This experiment was performed twice.
IVIS Spectrum (Caliper Life Science, Hanover, MD) was used to capture bioluminescence signals. Prior to analysis, the mice were injected i.p. with D-luciferin (100 mg/kg), anesthetized with isoflurane, and imaged 10 min postinjection. Images were analyzed using the Living Image 3.0 software (Caliper Life Sciences, Hanover, MD).
In order to study the in vivo efficacy of M1 without any hepatic CYP metabolism, we conducted an experiment using 1-aminobenzotriazole (ABT), a nonselective inhibitor of cytochrome P450 enzymes ([34], [35]). ABT was administered to mice i.p. 1 h before each treatment with 50 mg/kg gamhepathiopine for 3 days starting from the day before sporozoite inoculation.

[9] = system: P. falciparum liver-stage parasites in human primary hepatocytes; experiment: In vitro liver-stage development, P. falciparum in human primary hepatocytes; type: cell-based, Plasmodium falciparum
Description: as §1, §2, §3

[10] = system: P. falciparum sporozoites invading primary human hepatocytes; experiment: Hepatocyte invasion by preincubated P. falciparum sporozoites; details: reference compound; all concentrations tested
Procedure: as §2, §3

Structure (SMILES): CCN(CC)CCCC(C)Nc1ccnc2cc(Cl)ccc12 (stereo not shown) [Chloroquine, reference compound]
- EC50 ([1]; K1, 72 h): 0.8 µM
- parasitemia at day 4 [3]: 1.5%
- difference in recrudescence times versus artemisinin alone [4]: no difference in the recrudescence times

Structure (SMILES): CC(C)(C)Nc1nc2cc(-c3ccc(CO)cc3)sc2c(=O)[nH]1 [Metabolite 7, 2-(tert-Butylamino)-6-(4-(hydroxymethyl)phenyl)thieno[3,2-d]pyrimidin-4(3H)-one]
- EC50 ([1]; K1, erythrocytic stage, 72 h): 0.4 µM
- CC50 at 72 h [2]: 25 µM
- melting point: 264 °C
- EC50 [5]: 1 µM

Structure (SMILES): COc1cc(NC(C)CCCN)c2ncccc2c1 (stereo not shown) [Primaquine, reference compound]
- EC50 ([6]; Plasmodium cynomolgi, Hepatocyte, P. cynomolgi in simian primary hepatocytes (SH), mean ± SEM of triplicate experiments, read-out: EC50 against liver-stage parasites): 2.72 ± 0.34 µM
- SI (selectivity index) ([6]; hepatocyte CC50/EC50, P. cynomolgi (SH)): 12
- Size reduction at 10 μM (%) ([6]; parasite (schizont) size, 10 μM, P. cynomolgi (SH)): 70%
- EC50 ([7]; Plasmodium yoelii, Hepatocyte, read-out: EC50 against liver-stage parasites): 0.64 ± 0.1 µM
- SI (selectivity index) ([7]; hepatocyte CC50/EC50, P. yoelii (MH)): 110
- blood-stage parasitemia after sporozoite infection [8]: remained clear of parasitemia
- EC50 [5]: 3.6 µM
- EC50 ([9]; Plasmodium falciparum, Hepatocyte, P. falciparum in human primary hepatocytes (HH), mean ± SEM of triplicate experiments, read-out: EC50 against liver-stage parasites): 0.6 ± 0.06 µM
- SI (selectivity index) ([9]; hepatocyte CC50/EC50, P. falciparum (HH)): 66
- Size reduction at 10 μM (%) ([9]; parasite (schizont) size, 10 μM, P. falciparum (HH)): 100%
- percentage of inhibition of hepatocyte invasion [10]: 100%

Second part, led by results:

- EC50 ([1]; K1, erythrocytic stage, 72 h): 3.1 µM
- melting point: 296 °C
Structure (SMILES): CC(C)(C)Nc1nc2cc(-c3ccc(C=O)cc3)sc2c(=O)[nH]1 [Metabolite 8, 4-(2-(tert-Butylamino)-4-oxo-3,4-dihydrothieno[3,2-d]pyrimidin-6-yl)benzaldehyde]
- CC50 at 72 h [2]: 25.3 µM

- melting point: > 300 °C
Structure (SMILES): CC(C)(C)Nc1nc2cc(-c3ccc(C(=O)O)cc3)sc2c(=O)[nH]1 (as salt: hydrochloride) [Metabolite 10, 4-(2-(tert-Butylamino)-4-oxo-3,4-dihydrothieno[3,2-d]pyrimidin-6-yl)benzoic acid]
